Laboratory results taken from ChEMBL document CHEMBL1201862, “PubChem BioAssay data set” (2004).
Values joined by “and” are separate entries in the source; they are usually repeats but may differ in a detail not shown here. Identical values can stand only once.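 Values below derive from 48-hour exposures of cells grown in 96-well plates, with endpoints linearly interpolated between the two concentrations bracketing the appropriate inhibition level. GI50 marks 50% less growth.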 Active and inactive are the calls of the source. Cut-off read from the data, not from the text of the source: active = GI50 up to about 1.1 µM and inactive = higher.

What was measured:
Assay in all cases: NCI anticancer screen, dose series, 48 h
SNB-19 = tested on: SNB-19
MCF7 = tested on: MCF7
KM12 = tested on: KM12
LOX IMVI = tested on: LOX IMVI
OVCAR-4 = tested on: OVCAR-4
HOP-62 = tested on: HOP-62
HL-60 = tested on: HL-60
NCI-H23 = tested on: NCI-H23
UO-31 = tested on: UO-31
HT-29 = tested on: HT-29
BT-549 = tested on: BT-549
IGROV-1 = tested on: IGROV-1
SF-295 = tested on: SF-295
T47D = tested on: T47D
DU-145 = tested on: DU-145
HCT-116 = tested on: HCT-116
RPMI-8226 = tested on: RPMI-8226
UACC-62 = tested on: UACC-62
ACHN = tested on: ACHN
SK-MEL-2 = tested on: SK-MEL-2

SMILES	GI50 (SNB-19)	GI50 (MCF7)	GI50 (KM12)	GI50 (LOX IMVI)	GI50 (OVCAR-4)	GI50 (HOP-62)	GI50 (HL-60)	GI50 (NCI-H23)	GI50 (UO-31)	GI50 (HT-29)	GI50 (BT-549)	GI50 (IGROV-1)	GI50 (SF-295)	GI50 (T47D)	GI50 (DU-145)	GI50 (HCT-116)	GI50 (RPMI-8226)	GI50 (UACC-62)	GI50 (ACHN)	GI50 (SK-MEL-2)
Cc1cccc(-c2nc(-c3cnccn3)n(Cc3ccccc3)n2)c1	95.1 µM (inactive)	> 100 µM (inactive)	> 100 µM (inactive)	> 100 µM (inactive)	27.2 µM (inactive)	35.1 µM (inactive)	> 100 µM (inactive)	> 100 µM (inactive)	> 100 µM (inactive)	> 100 µM (inactive)	> 100 µM (inactive)	> 100 µM (inactive)	50.8 µM (inactive)	90.6 µM (inactive)	> 100 µM (inactive)	> 100 µM (inactive)	> 100 µM (inactive)	70.8 µM (inactive)	–	–
CC(=O)Nc1ccc(COC(O)CN2CCCCC2)cc1[N+](=O)[O-] (centres undefined)	> 100 µM (inactive)	> 100 µM (inactive)	> 100 µM (inactive)	–	> 100 µM (inactive)	–	> 100 µM (inactive)	> 100 µM (inactive)	> 100 µM (inactive)	> 100 µM (inactive)	> 100 µM (inactive)	> 100 µM (inactive)	> 100 µM (inactive)	> 100 µM (inactive)	> 100 µM (inactive)	> 100 µM (inactive)	> 100 µM (inactive)	> 100 µM (inactive)	> 100 µM (inactive)	> 100 µM (inactive)
O=C(CSc1nnc(-c2ccccn2)s1)N/N=C/c1ccc([N+](=O)[O-])cc1	21.9 µM (inactive)	> 100 µM (inactive)	> 100 µM (inactive)	> 100 µM (inactive)	> 100 µM (inactive)	35.6 µM (inactive)	> 100 µM (inactive)	> 100 µM (inactive)	< 0.01 µM (active)	> 100 µM (inactive)	56.2 µM (inactive)	20.9 µM (inactive)	29.4 µM (inactive)	37.1 µM (inactive)	11.4 µM (inactive)	55.7 µM (inactive)	–	76.4 µM (inactive)	53.8 µM (inactive)	77.1 µM (inactive)
CCSc1n/c(=C\c2ccco2)c2nnnn12	> 100 µM (inactive)	> 100 µM (inactive)	> 100 µM (inactive)	> 100 µM (inactive)	> 100 µM (inactive)	> 100 µM (inactive)	–	> 100 µM (inactive)	> 100 µM (inactive)	> 100 µM (inactive)	> 100 µM (inactive)	> 100 µM (inactive)	> 100 µM (inactive)	> 100 µM (inactive)	> 100 µM (inactive)	> 100 µM (inactive)	> 100 µM (inactive)	> 100 µM (inactive)	> 100 µM (inactive)	> 100 µM (inactive)
CSc1ncc2c(n1)-c1ccccc1OC2N1CCOCC1 (centres undefined)	68.2 µM (inactive)	55.8 µM (inactive)	53.3 µM (inactive)	65.5 µM (inactive)	21.7 µM (inactive)	–	27.3 µM (inactive)	> 100 µM (inactive)	42.4 µM (inactive)	90.4 µM (inactive)	49.5 µM (inactive)	39.4 µM (inactive)	49.7 µM (inactive)	24.1 µM (inactive)	> 100 µM (inactive)	69.7 µM (inactive)	49.9 µM (inactive)	28.1 µM (inactive)	80.9 µM (inactive)	> 100 µM (inactive)
Cc1[nH]c2ncn3[nH]c(=S)nc3c2c1Cc1ccccc1	> 100 µM (inactive)	52.6 µM (inactive)	> 100 µM (inactive)	–	> 100 µM (inactive)	> 100 µM (inactive)	> 100 µM (inactive)	> 100 µM (inactive)	> 100 µM (inactive)	> 100 µM (inactive)	> 100 µM (inactive)	48.1 µM (inactive)	> 100 µM (inactive)	28.8 µM (inactive)	> 100 µM (inactive)	> 100 µM (inactive)	–	> 100 µM (inactive)	> 100 µM (inactive)	> 100 µM (inactive)
O=[N+]([O-])/C(C(Cl)=C(Cl)Cl)=C(\N1CCCCC1)n1cncn1	17.7 µM (inactive)	14.9 µM (inactive)	19.5 µM (inactive)	15.1 µM (inactive)	18.6 µM (inactive)	19.6 µM (inactive)	–	15.2 µM (inactive)	15.9 µM (inactive)	17.7 µM (inactive)	17.5 µM (inactive)	9.08 µM (inactive)	17.1 µM (inactive)	14.8 µM (inactive)	16.6 µM (inactive)	22.2 µM (inactive)	19.1 µM (inactive)	15.2 µM (inactive)	17.7 µM (inactive)	18 µM (inactive)
CCC/C(C)=N/NC(=S)SC.CCC/C(C)=N/NC(=S)SC.[Zn+2]	16.2 µM (inactive)	7.24 µM (inactive)	11.5 µM (inactive)	1.48 µM (inactive)	14.1 µM (inactive)	9.75 µM (inactive)	–	13.7 µM (inactive)	11 µM (inactive)	3.07 µM (inactive)	10.6 µM (inactive)	2.56 µM (inactive)	3.15 µM (inactive)	11.5 µM (inactive)	12 µM (inactive)	10.4 µM (inactive)	1.98 µM (inactive)	10.9 µM (inactive)	9.08 µM (inactive)	13.9 µM (inactive)
COc1cc2c3c(n(C)c(=O)c2cc1OC)-c1cc2c(cc1/C3=C\CCCI)OCO2	13.7 µM (inactive)	2.91 µM (inactive)	> 87.9 µM (inactive)	8.3 µM (inactive)	–	10 µM (inactive)	> 47.1 µM (inactive)	12.2 µM (inactive)	0.653 µM (active)	20.4 µM (inactive)	1.7 µM (inactive)	1.58 µM (inactive)	0.904 µM (active)	0.7 µM (active)	1.17 µM (inactive)	1.47 µM (inactive)	3.92 µM (inactive)	4.49 µM (inactive)	0.531 µM (active)	> 100 µM (inactive)
C=CCNC(=O)NC(=O)CSC1=NC(=O)C2(NN1)c1ccccc1-c1ccccc12	> 10 µM (inactive)	> 10 µM (inactive)	> 10 µM (inactive)	> 10 µM (inactive)	> 10 µM (inactive)	> 10 µM (inactive)	> 10 µM (inactive)	> 10 µM (inactive)	9.62 µM (inactive)	> 10 µM (inactive)	> 10 µM (inactive)	> 10 µM (inactive)	> 10 µM (inactive)	> 10 µM (inactive)	> 10 µM (inactive)	> 10 µM (inactive)	> 10 µM (inactive)	> 10 µM (inactive)	> 10 µM (inactive)	–
CCCCCCCCCCCCCCCCCCNc1nc(=O)n(C2CC(O)C(COP(=O)(O)O)O2)cc1F (centres undefined)	> 100 µM (inactive)	16.9 µM (inactive)	> 72.8 µM (inactive)	58.9 µM (inactive)	> 100 µM (inactive)	81.7 µM (inactive)	–	58.1 µM (inactive)	31.7 µM (inactive)	> 100 µM (inactive)	> 100 µM (inactive)	> 74.8 µM (inactive)	> 80.7 µM (inactive)	42.9 µM (inactive)	> 57.4 µM (inactive)	81.7 µM (inactive)	> 63.2 µM (inactive)	> 78.2 µM (inactive)	10.8 µM (inactive)	> 100 µM (inactive)
O=c1n(Cc2ccccc2)c(=O)n2c(=O)n(Cc3ccccc3)c(=O)n12	> 100 µM (inactive)	> 100 µM (inactive)	> 100 µM (inactive)	> 100 µM (inactive)	> 100 µM (inactive)	–	> 100 µM (inactive)	> 100 µM (inactive)	> 100 µM (inactive)	54.6 µM (inactive)	> 100 µM (inactive)	–	> 100 µM (inactive)	> 100 µM (inactive)	> 100 µM (inactive)	> 100 µM (inactive)	> 100 µM (inactive)	> 100 µM (inactive)	> 100 µM (inactive)	–
CC(=O)OCC(OC(C)=O)C(OC(C)=O)C(OC(C)=O)C(C=NN(C(C)=O)S(=O)(=O)c1ccc(/C=C2\NC(=O)N(C)C2=O)cc1)OC(C)=O (centres undefined)	38.2 µM (inactive)	30.2 µM (inactive)	> 100 µM (inactive)	11.9 µM (inactive)	27 µM (inactive)	26.3 µM (inactive)	–	36.1 µM (inactive)	35.9 µM (inactive)	24.7 µM (inactive)	12.4 µM (inactive)	18.8 µM (inactive)	42.8 µM (inactive)	15.9 µM (inactive)	29.5 µM (inactive)	17.1 µM (inactive)	18.5 µM (inactive)	10.3 µM (inactive)	37.4 µM (inactive)	20.4 µM (inactive)
Cc1c2ccccc2c(C)n2c1nc1ccccc12	9.71 µM (inactive)	2.24 µM (inactive)	7.53 µM (inactive)	–	–	10 µM (inactive)	83 µM (inactive)	6.93 µM (inactive)	5.35 µM (inactive)	5.11 µM (inactive)	15.1 µM (inactive)	11.6 µM (inactive)	4.93 µM (inactive)	17.5 µM (inactive)	18.5 µM (inactive)	4.65 µM (inactive)	7.16 µM (inactive)	10.2 µM (inactive)	4.06 µM (inactive)	–
O=C1CC(C(OCc2ccccc2)C(OCc2ccccc2)C(COCc2ccccc2)OCc2ccccc2)CC(=O)N1 (centres undefined)	> 75 µM (inactive)	> 100 µM (inactive) and 51.9 µM (inactive)	–	> 75 µM (inactive)	> 75 µM (inactive)	–	> 100 µM (inactive)	> 75 µM (inactive)	–	> 75 µM (inactive)	> 100 µM (inactive)	> 100 µM (inactive)	> 75 µM (inactive)	26.1 µM (inactive)	> 75 µM (inactive)	> 75 µM (inactive)	> 75 µM (inactive)	–	> 75 µM (inactive)	–
